Reference: patent US9238658B2, “Substituted piperidinyl-carboxamide derivatives useful as SCD 1 inhibitors” (Janssen Pharmaceutica NV, priority 2011, dated 2016)
pIC50: −log10 of the molar value. “And” between values parts separate entries of the source, which are not always exact repeats. Identical values can stand only once.

How the values were obtained:
SCD1 [1] = target: SCD1 (Rattus norvegicus (Rat), UniProt P07308); test: SCD1 enzymatic assay in rat liver microsomes (RLM); type: biochemical; conditions: for inhibition at 1 µM / % Inh. @ 1 μM: 1 μM test compound
Description: Step 1: Preparation of Rat Liver Microsome (RLM)
Sprague Dawley rats from Charles River (200-225 g) underwent 2-cycle of fast-re-feeding (24-hour fast followed by 24-hour feeding with fat-free high carbohydrate diet, Research Diet, D00042802). The livers were removed and homogenized 1:4 (w/v) with pre-chilled, homogenizing buffer (10 mM Tris-HCl, 0.25 M sucrose, 1 mM EDTA, pH 7.4, supplemented with protease inhibitor cocktail). The homogenate was spun at 12,000×g for 15 min at 4° C. The supernatant was then re-centrifuged at 100,000×g for 60 min at 4° C. The pellet was re-suspended in 2 ml pre-chilled […] potassium phosphate buffer, pH 7.2, 10 mM EDTA at a concentration of 20 mg/ml. The resulting rat liver microsome (RLM) preparation was stored at […].
Step 2: SCD1 Enzymatic Assay in RLM:
The SCD1 enzymatic assay was done in a volume of 50 μL using 10 μg of RLM (prepared as described above) in a 96-well polypropylene plate (enzyme reaction buffer contains 0.1 M K-Phosphate Buffer, 10 mM ATP, 6 mM MgCl2, 1 mM CoA, 1 mM β-NADH, 1.6 mM L-glutathione, 20 μM Stearoyl-CoA). Stearoyl-[9,10-^3H]—CoA (ARC-0390, 1 mCi/mL, 60 Ci/mmol,) was added at a final concentration of 2 μCi/mL. Test compound was then added to the reaction mixture at the selected concentration. After incubation at room temperature for 2 hours, 5 μL 1 N HCl was added to stop the reaction, followed by addition of 25 μL of 10% charcoal. The reaction mixture was then transferred to 96-well Multiscreen plate (Millipore, Cat# MSFCN6B50). [^3H2O] was collected into Opti-plate (PE, Cat #6005290) by centrifuge, at 1,000 rpm for 2 minutes. 150 μL Microscint 40 (PE, cat #6013641) was then added to each well and counted on Topcount for [^3H] counts per minute (cpm). The measured cpm values were fitted with Sigmoidal dose-response curve fit with Graphpad Prism.

SCD1 [2] = target: SCD1 (Homo sapiens (Human), UniProt O00767); test: SCD1 13C-palmitic acid assay in A431 cells; type: cell-based; conditions: read-out: A431 cells 13C-PA IC50
Description: Human epithelial carcinoma A431 cells were seeded at 100,000 cells/well in complete growth medium (DMEM, Cellgro #10-013-CM, 4.5 g/L glucose, 10% FBS) in the presence of 0.05 mg/mL human insulin (Hannas Pharmaceutical Supply Co Inc, Humanlin 100 U/ml, 4 mg/ml) in 96-well tissue culture plate. […] The cells were then returned to the tissue culture incubator (37° C. and 5% CO2) for 4 hrs. At the end of incubation, the cells were washed three times with 200 μL/well Hanks buffer (HBSS) and then stored at −20° C. until extraction.
For fatty acid extraction, after thawing out the plates, 40 μL of 1N KOH (containing 5 μM of internal standard 7,7,8,8-D4 palmitate) was added to each well and cell plates were incubated at 37° C. for 30 minutes. […] Acetonitrile (100 μL) was then added to extract fatty acids, followed by centrifugation at 3000 rpm for 10 minutes. 75 μL of extract was then transferred to a new glass vial in a 96-well cluster plate. 5 μL was injected for LC/MS analysis for detection of ^13C-palmitic acid and ^13C-palmitoleic acid. Formation of product ^13C-palmitoleic acid was determined as an index of SCD1 activity.
LC/MS analysis was performed as following. An Agilent 1100 Liquid Chromatographic System (Palo Alto, Calif.) consisting of a binary pump, a degasser and an autosampler was used. Separation of free fatty acids was performed on a Zorbax SB—C8 column (2.1×50 mm, particle size=3.5 μm). An isocratic elution was carried out with 10 mM triethylamine acetate in water:acetonitrile (3:7) at a flow rate of 0.3 mL/min. The column temperature was set at 30° C. and the sample injection volume was 5 μL. The LC run cycle was 4 min, A Micromass triple-quadrupole Quattro Micro mass […] (Waters, Beverly, Mass.) was interfaced with the LC system through a Z-spray electrospray ion source and was operated in the negative ion mode. Nitrogen was used as nebulizing gas, desolvation gas and cone curtain gas and argon was chosen as collision gas. The triple quadrupole MS source parameters were set as follows: capillary voltage, 3200V; cone voltage, 25V; extractor 2V, source temperature, 120° C.; desolvation temperature, 300° C.; cone gas flow, 50 L/h; and desolvation gas flow, 700 L/h. […] MassLynx software version 4.0 was used for system control and data processing. The signal of U—^13C-palmitoleic acid was normalized to an internal standard.

SCD1 (Rattus norvegicus (Rat), UniProt P07308), sequence (P07308 whole entry): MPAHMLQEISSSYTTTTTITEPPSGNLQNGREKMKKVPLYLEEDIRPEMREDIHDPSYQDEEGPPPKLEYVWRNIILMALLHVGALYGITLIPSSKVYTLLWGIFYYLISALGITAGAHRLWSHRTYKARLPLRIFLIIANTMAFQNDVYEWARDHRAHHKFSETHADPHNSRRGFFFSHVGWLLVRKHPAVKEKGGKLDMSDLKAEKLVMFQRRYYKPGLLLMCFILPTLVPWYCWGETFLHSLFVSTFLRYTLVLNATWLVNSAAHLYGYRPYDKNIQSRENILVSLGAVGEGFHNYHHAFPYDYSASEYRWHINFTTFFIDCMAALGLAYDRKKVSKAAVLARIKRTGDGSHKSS
SCD1 (Homo sapiens (Human), UniProt O00767), sequence (O00767 whole entry): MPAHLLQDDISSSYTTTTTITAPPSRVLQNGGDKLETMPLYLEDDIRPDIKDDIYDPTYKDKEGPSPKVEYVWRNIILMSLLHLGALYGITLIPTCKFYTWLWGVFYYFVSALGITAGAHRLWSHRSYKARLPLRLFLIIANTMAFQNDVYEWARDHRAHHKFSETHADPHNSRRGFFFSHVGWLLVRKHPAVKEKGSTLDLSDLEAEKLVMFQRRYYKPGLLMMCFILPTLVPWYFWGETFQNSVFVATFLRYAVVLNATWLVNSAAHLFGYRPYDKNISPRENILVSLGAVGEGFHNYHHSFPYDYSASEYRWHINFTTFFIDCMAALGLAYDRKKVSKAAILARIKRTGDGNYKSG

Compound	pIC50 (SCD1 [1])	inhibition at 1 µM (SCD1 [1])	pIC50 (SCD1 [2])	% Inh. @ 1 μM (SCD1 [1])
NC(=O)c1cnc(NC(=O)N2CCC(N3CCc4ccc(F)cc43)CC2)s1 [Compound 15, 2-(4-(6-fluoroindolin-1-yl)piperidine-1-carboxamido)thiazole-5-carboxamide]	7.66	101%	7.31	–
O=C(Nc1ncc(CCO)s1)N1CCC(N2CCc3ccc(F)cc32)CC1 [Compound 50, 4-(6-fluoroindolin-1-yl)-N-(5-(2-hydroxyethyl)thiazol-2-yl)piperidine-1-carboxamide]	8.10	102%	8.22	–
Cc1cnc(NC(=O)N2CCC(c3noc4ccc(F)cc34)CC2)s1 [Compound 14, 4-(5-fluorobenzo[d]isoxazol-3-yl)-N-(5-methylthiazol-2-yl)piperidine-1-carboxamide]	6.52	86%	6.77	–
NC(=O)c1cccc(NC(=O)N2CCC(N3CCc4ccc(F)cc43)CC2)c1 [Compound 16, N-(3-carbamoylphenyl)-4-(6-fluoroindolin-1-yl)piperidine-1-carboxamide]	7.70	96%	7.03	–
O=C(Nc1nc2c(s1)CN(CCO)CC2)N1CCC(N2CCc3ccc(F)cc32)CC1 [Compound 38, 4-(6-fluoroindolin-1-yl)-N-(5-(2-hydroxyethyl)-4,5,6,7-tetrahydrothiazolo[5,4-c]pyridin-2-yl)piperidine-1-carboxamide]	6.11	–	6.36	–
O=C1OCc2ccc(NC(=O)N3CCC(N4CCc5ccc(F)cc54)CC3)cc21 [Compound 47, 4-(6-fluoroindolin-1-yl)-N-(3-oxo-1,3-dihydroisobenzofuran-5-yl)piperidine-1-carboxamide]	7.77	83%	7.57	–
O=C(Nc1nc(CO)cs1)N1CCC(N2CCc3ccc(F)cc32)CC1 [Compound 25, 4-(6-fluoroindolin-1-yl)-N-(4-(hydroxymethyl)thiazol-2-yl)piperidine-1-carboxamide]	7.28	94%	7.38	–
COC(=O)c1cnc(NC(=O)N2CCC(N3CCc4ccc(F)cc43)CC2)s1 [Compound 18, methyl 2-(4-(6-fluoroindolin-1-yl)piperidine-1-carboxamido)thiazole-5-carboxylate]	6.44	62%	6.66	–
O=C(Nc1ncc(CCO)s1)N1CCC(c2noc3ccc(F)cc23)CC1 [Compound 55, 4-(5-fluorobenzo[d]isoxazol-3-yl)-N-(5-(2-hydroxyethyl)thiazol-2-yl)piperidine-1-carboxamide]	7.96	92%	7.52	–
O=C(Nc1nc2c(s1)CCCC2)N1CCC(N2CCc3ccc(F)cc32)CC1 [Compound 62, 4-(6-fluoroindolin-1-yl)-N-(4,5,6,7-tetrahydrobenzo[d]thiazol-2-yl)piperidine-1-carboxamide]	6.46	68%	7.12	–
O=C(CO)N1CCc2nc(NC(=O)N3CCC(N4CCc5ccc(F)cc54)CC3)sc2C1 [Compound 35, 4-(6-fluoroindolin-1-yl)-N-(5-(2-hydroxyacetyl)-4,5,6,7-tetrahydrothiazolo[5,4-c]pyridin-2-yl)piperidine-1-carboxamide]	7.02	92%	6.95	–
O=C(Nc1nc2c(s1)COCC2)N1CCC(c2noc3ccc(F)cc23)CC1 [Compound 63, N-(6,7-dihydro-4H-pyrano[4,3-d]thiazol-2-yl)-4-(5-fluorobenzo[d]isoxazol-3-yl)piperidine-1-carboxamide]	7.07	55%	6.75	–
CNC(=O)c1cnc(NC(=O)N2CCC(N3CCc4ccc(F)cc43)CC2)s1 [Compound 19, 2-(4-(6-fluoroindolin-1-yl)piperidine-1-carboxamido)-N-methylthiazole-5-carboxamide]	7.03	94%	6.69	–
O=C(Nc1cccc(CO)c1)N1CCC(N2CCc3ccc(F)cc32)CC1 [Compound 43, 4-(6-fluoroindolin-1-yl)-N-(3-(hydroxymethyl)phenyl)piperidine-1-carboxamide]	6.49	61%	6.79	–
NC(=O)c1cccc(NC(=O)N2CCC(c3noc4ccc(F)cc34)CC2)c1 [Compound 17, N-(3-carbamoylphenyl)-4-(5-fluorobenzo[d]isoxazol-3-yl)piperidine-1-carboxamide]	6.68	84%	6.56	–
O=C(Nc1nc(CCO)cs1)N1CCC(c2noc3ccc(F)cc23)CC1 [Compound 54, 4-(5-fluorobenzo[d]isoxazol-3-yl)-N-(4-(2-hydroxyethyl)thiazol-2-yl)piperidine-1-carboxamide]	7.54	95%	7.42	–
O=C(Nc1nc2c(s1)CC(O)CC2)N1CCC(N2CCc3ccc(F)cc32)CC1 (centres unmarked) [Compound 33, 4-(6-fluoroindolin-1-yl)-N-(6-hydroxy-4,5,6,7-tetrahydrobenzo[d]thiazol-2-yl)piperidine-1-carboxamide]	8.15 and 7.70	97%	> 9.00 and 9.00	99%
O=C(Nc1nc2c(s1)CNCC2)N1CCC(N2CCc3ccc(F)cc32)CC1 [Compound 36, 4-(6-fluoroindolin-1-yl)-N-(4,5,6,7-tetrahydrothiazolo[5,4-c]pyridin-2-yl)piperidine-1-carboxamide]	7.54	91%	7.80	–
Cc1csc(NC(=O)N2CCC(N3CCc4ccc(F)cc43)CC2)n1 [Compound 20, 4-(6-fluoroindolin-1-yl)-N-(4-methylthiazol-2-yl)piperidine-1-carboxamide]	7.59	98%	7.68	–
NC(=O)c1cccc(NC(=O)N2CCC(n3ncc4c(F)cccc43)CC2)c1 [Compound 39, N-(3-carbamoylphenyl)-4-(4-fluoro-1H-indazol-1-yl)piperidine-1-carboxamide]	7.06 and 7.23	86%	6.54 and 6.83	86, 86%
O=C(Nc1ncc(CO)s1)N1CCC(N2CCc3ccc(F)cc32)CC1 [Compound 24, 4-(6-fluoroindolin-1-yl)-N-(5-(hydroxymethyl)thiazol-2-yl)piperidine-1-carboxamide]	7.06	97%	6.81	–
O=C1NCCn2nc(NC(=O)N3CCC(N4CCc5ccc(F)cc54)CC3)cc21 [Compound 37, 4-(6-fluoroindolin-1-yl)-N-(4-oxo-4,5,6,7-tetrahydropyrazolo[1,5-a]pyrazin-2-yl)piperidine-1-carboxamide]	7.85 and 7.66	95%	7.52	89%
O=C(Nc1nc2c(s1)COCC2)N1CCC(N2CCc3ccc(F)cc32)CC1 [Compound 61, N-(6,7-dihydro-4H-pyrano[4,3-d]thiazol-2-yl)-4-(6-fluoroindolin-1-yl)piperidine-1-carboxamide]	6.69	99%	7.77	–
